pIC50: −log10 of the molar value.
Tests used:
L6 = assay: Cytotoxicity against rat L6 cells assessed as growth inhibition after 72 hrs by alamar blue assay; format: cell-based; conditions: L6, 72 h
Trypanosoma cruzi = assay: Antitrypanosomal activity against Trypanosoma cruzi Tulahuen strain C2C4 amastigote forms harboring LacZ infected in rat L6 cells after 96 hrs by CPRG/Nonidet reagent based photometric method; format: functional, cell-based; conditions: Tulahuen strain C2C4, L6, 96 h
[1] = Selectivity index, ratio of IC50 for rat L6 cells to IC50 for chloroquine resistant Plasmodium falciparum K1 erythrocytic stage; format: toxicity; conditions: read-out: Ratio IC50
[2] = test system: Trypanosoma brucei rhodesiense; assay: Antitrypanosomal activity against bloodstream forms of Trypanosoma brucei rhodesiense STIB900 trypomastigotes after 72 hrs by alamar blue assay; format: functional; conditions: STIB900, 72 h
[3] = Selectivity index, ratio of IC50 for rat L6 cells to IC50 for Trypanosoma cruzi Tulahuen strain C2C4 amastigote forms harboring LacZ infected in rat L6 cells; format: toxicity, cell-based; conditions: read-out: Ratio IC50
Leishmania donovani = assay: Antileishmanial activity against Leishmania donovani MHOM/SD/62/ISCL2D axenic amastigotes after 72 hrs by alamar blue assay; format: functional
Plasmodium falciparum = assay: Antiplasmodial activity against chloroquine resistant Plasmodium falciparum K1 erythrocytic stage assessed as reduction in [3H]hypoxanthine incorporation after 48 hrs by liquid scintillation counting assay; format: functional
[4] = Selectivity index, ratio of IC50 for rat L6 cells to IC50 for bloodstream forms of Trypanosoma brucei rhodesiense STIB900 trypomastigotes; format: toxicity; conditions: read-out: Ratio IC50
[5] = Selectivity index, ratio of IC50 for rat L6 cells to IC50 for Leishmania donovani MHOM/SD/62/ISCL2D axenic amastigotes; format: toxicity; conditions: read-out: Ratio IC50

Compound	pIC50 (L6)	pIC50 (Trypanosoma cruzi)	selectivity ratio [1]	pIC50 [2]	selectivity ratio [3]	pIC50 (Leishmania donovani)	pIC50 (Plasmodium falciparum)	selectivity ratio [4]	selectivity ratio [5]
CC(=O)O[C@@H]1[C@H](OC(C)=O)[C@@H](CI)O[C@H]1n1cnc2c(N)nc(F)nc21	5.20	4.85	6	4.82	0.4	5.04	5.96	0.4	0.7
Nc1nc(Cl)c2ccn([C@@H]3O[C@H](CO)[C@@H](O)[C@H]3O)c2n1	3.79	5.47	2	6.89	48	7.22	4.17	1250	2720
CNc1nc(N)nc2c1ncn2[C@@H]1O[C@H](C)[C@@H](O)[C@H]1O	3.68	4.82	11	3.90	14	3.49	4.72	2	0.6
COc1nc(I)nc2c1ncn2[C@@H]1O[C@H](C)[C@@H](O)[C@H]1O	3.80	3.95	2	3.97	1	3.90	4.19	2	1
Nc1nc([Se][Se]c2nc(N)nc3c2ccn3[C@@H]2O[C@H](CO)[C@@H](O)[C@H]2O)c2ccn([C@@H]3O[C@H](CO)[C@@H](O)[C@H]3O)c2n1	4.62	4.68	1	5.02	1	< 3.84	4.69	3	< 0.2
CC(=O)NC[C@H]1O[C@@H](n2cnc3c(N)nc(Cl)nc32)[C@H](O)[C@@H]1O	3.72	3.76	2	4.10	1	< 3.55	4.06	2	< 0.7
CC(=O)O[C@@H]1[C@H](OC(C)=O)[C@@H](CI)O[C@H]1n1cnc2c(N)nc(Cl)nc21	4.07	5.00	22	4.92	9	4.82	5.41	7	6
[N-]=[N+]=NC[C@H]1O[C@@H](n2cnc3c(N)nc(F)nc32)[C@H](O)[C@@H]1O	5.51	4.89	3	4.66	0.2	6.00	6.05	0.1	3
CNc1nc(N)nc2c1ncn2[C@@H]1O[C@H](CSC)[C@@H](O)[C@H]1O	3.78	4.66	6	3.54	8	< 3.50	4.54	0.6	0.5
[N-]=[N+]=NC[C@H]1O[C@@H](n2cnc3c(N)nc(Cl)nc32)[C@H](O)[C@@H]1O	3.81	4.12	16	4.25	2	3.71	5.01	3	0.8
CC(=O)NC[C@H]1O[C@@H](n2cnc3c(N)nc(Cl)nc32)[C@H](OC(C)=O)[C@@H]1OC(C)=O	3.72	3.90	2	3.95	2	< 3.64	3.99	2	< 0.8
CNc1nc(NC)c2ncn([C@@H]3O[C@H](C)[C@@H](O)[C@H]3O)c2n1	3.73	3.96	< 1	< 3.47	2	< 3.47	< 3.77	< 0.6	< 0.6
Nc1nc2c(ccn2[C@@H]2O[C@H](CO)[C@@H](O)[C@H]2O)c(=S)[nH]1	3.73	4.15	< 1	4.21	3	< 3.47	< 3.77	3	< 0.6
CC(=O)O[C@@H]1[C@H](OC(C)=O)[C@@H](CN2C(=O)c3ccccc3C2=O)O[C@H]1n1cnc2c(N)nc(F)nc21	3.89	3.99	3	3.80	1	< 3.70	4.35	0.8	< 0.6
CNc1nc(Cl)c2ncn([C@@H]3O[C@H](C)[C@@H](O)[C@H]3O)c2n1	3.76	4.46	1	3.64	5	< 3.47	3.82	0.8	< 0.5
CC(=O)NC[C@H]1O[C@@H](n2cnc3c(N)nc(F)nc32)[C@H](O)[C@@H]1O	3.74	3.75	10	< 3.52	1	3.93	4.72	< 0.6	2
CC(=O)O[C@@H]1[C@H](OC(C)=O)[C@@H](CN2C(=O)c3ccccc3C2=O)O[C@H]1n1cnc2c(N)nc(Cl)nc21	3.84	4.00	6	3.79	1	3.86	4.64	0.9	1
CC(=O)NC[C@H]1O[C@@H](n2cnc3c(N)nc(F)nc32)[C@H](OC(C)=O)[C@@H]1OC(C)=O	3.86	3.97	4	3.94	1	< 3.62	4.43	1	< 0.6

— ChEMBL document CHEMBL3997846, “Synthesis and activity of nucleoside-based antiprotozoan compounds” (Bioorg Med Chem, 2017)
